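48-hour exposure; five concentrations; linearly interpolated endpoints. GI50 is the concentration that inhibits growth by half. TGI: concentration producing complete growth inhibition.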
Experiments:
Assay in all cases: NCI-60 cell line screen, 48 h
[1] = system: CCRF-CEM leukemia
[2] = system: SK-MEL-5 melanoma
[3] = system: MOLT-4 leukemia
[4] = system: SF-295 CNS
[5] = system: HCC-2998 colon
[6] = system: OVCAR-5 ovarian
[7] = system: UACC-62 melanoma
[8] = system: NCI-H226 lung
[9] = system: NCI-H23 lung
[10] = system: T-47D breast
[11] = system: M14 melanoma
[12] = system: UACC-257 melanoma
[13] = system: SNB-19 CNS
[14] = system: HCT-116 colon
[15] = system: NCI-H522 lung
[16] = system: PC-3 prostate
[17] = system: RPMI-8226 leukemia
[18] = system: OVCAR-3 ovarian
[19] = system: SW-620 colon
[20] = system: HCT-15 colon
[21] = system: LOX IMVI melanoma
[22] = system: MDA-MB-468 breast
[23] = system: K-562 leukemia
[24] = system: KM12 colon
[25] = system: A549 NSCLC
[26] = system: NCI-H460 lung
[27] = system: MDA-MB-231 breast
[28] = system: HT29 colon
[29] = system: SK-MEL-2 melanoma

Nc1n[nH]c2cccc(C#Cc3cccc(NC(=O)Nc4cc(C(F)(F)F)cc(C(F)(F)F)c4)c3)c12
GI50 [1]: 3270 nM
TGI [1]: 14200 nM
GI50 [2]: 1880 nM
TGI [2]: 3690 nM
GI50 [3]: 2770 nM
TGI [3]: 10200 nM
GI50 [4]: 2320 nM
TGI [4]: 6830 nM
GI50 [5]: 2310 nM
TGI [5]: 5070 nM
GI50 [6]: 2200 nM
TGI [6]: 10400 nM
GI50 [7]: 2110 nM
TGI [7]: 4900 nM
GI50 [8]: 2820 nM
TGI [8]: 9340 nM
GI50 [9]: 2160 nM
TGI [9]: 5440 nM
GI50 [10]: 2730 nM
TGI [10]: 11000 nM
GI50 [11]: 2020 nM
TGI [11]: 4550 nM
GI50 [12]: 2590 nM
TGI [12]: 8440 nM
GI50 [13]: 7620 nM
TGI [13]: 21200 nM
GI50 [14]: 2070 nM
TGI [14]: 5640 nM
GI50 [15]: 2370 nM
TGI [15]: 7010 nM
GI50 [16]: 2230 nM
TGI [16]: 6960 nM
GI50 [17]: 2630 nM
TGI [17]: 9160 nM
GI50 [18]: 2670 nM
TGI [18]: 8060 nM
GI50 [19]: 1960 nM
TGI [19]: 3800 nM
GI50 [20]: 2480 nM
TGI [20]: 10100 nM
GI50 [21]: 1600 nM
TGI [21]: 2940 nM
GI50 [22]: 2220 nM
TGI [22]: 6000 nM
GI50 [23]: 2720 nM
TGI [23]: > 100000 nM
GI50 [24]: 1850 nM
TGI [24]: 4100 nM
GI50 [25]: 2590 nM
TGI [25]: 11300 nM
GI50 [26]: 2040 nM
TGI [26]: 5140 nM
GI50 [27]: 1060 nM
TGI [27]: 2450 nM
GI50 [28]: 1670 nM
TGI [28]: 3260 nM
GI50 [29]: 1620 nM
TGI [29]: 3340 nM

— PubChem BioAssay (NCI)
